We go through 2 molecules from ChEMBL document CHEMBL1201862, “PubChem BioAssay data set” (2004).

The structures appear in SMILES notation. Activity calls are given as the source filed them.

Experiment [1] can be described thus: Luminescence Cell-Based Dose Response HTS to Identify Activators of Luciferase Translation or Activity in H4 […] Cells. [Related pubchem assays: 1829 (Project Summary), 1814 (Primary HTS)]. The class given is functional.
Experiment [2] concerns H4. The experiment in a line: Luminescence Cell-Based Dose Response HTS to Identify Activators of 5'UTR Stem-Loop Driven Prion Protein mRNA Translation in H4 Neuroglioblastoma Cells. [Related pubchem assays: 1829 (Project Summary), 1814 (Primary HTS)]. The settings on record: Homo sapiens. The class given is functional.
The target in experiment [3] is T1, Replicative DNA helicase DnaB (Mycobacterium tuberculosis, UniProt P9WMR3).
T1 sequence (P9WMR3 whole entry): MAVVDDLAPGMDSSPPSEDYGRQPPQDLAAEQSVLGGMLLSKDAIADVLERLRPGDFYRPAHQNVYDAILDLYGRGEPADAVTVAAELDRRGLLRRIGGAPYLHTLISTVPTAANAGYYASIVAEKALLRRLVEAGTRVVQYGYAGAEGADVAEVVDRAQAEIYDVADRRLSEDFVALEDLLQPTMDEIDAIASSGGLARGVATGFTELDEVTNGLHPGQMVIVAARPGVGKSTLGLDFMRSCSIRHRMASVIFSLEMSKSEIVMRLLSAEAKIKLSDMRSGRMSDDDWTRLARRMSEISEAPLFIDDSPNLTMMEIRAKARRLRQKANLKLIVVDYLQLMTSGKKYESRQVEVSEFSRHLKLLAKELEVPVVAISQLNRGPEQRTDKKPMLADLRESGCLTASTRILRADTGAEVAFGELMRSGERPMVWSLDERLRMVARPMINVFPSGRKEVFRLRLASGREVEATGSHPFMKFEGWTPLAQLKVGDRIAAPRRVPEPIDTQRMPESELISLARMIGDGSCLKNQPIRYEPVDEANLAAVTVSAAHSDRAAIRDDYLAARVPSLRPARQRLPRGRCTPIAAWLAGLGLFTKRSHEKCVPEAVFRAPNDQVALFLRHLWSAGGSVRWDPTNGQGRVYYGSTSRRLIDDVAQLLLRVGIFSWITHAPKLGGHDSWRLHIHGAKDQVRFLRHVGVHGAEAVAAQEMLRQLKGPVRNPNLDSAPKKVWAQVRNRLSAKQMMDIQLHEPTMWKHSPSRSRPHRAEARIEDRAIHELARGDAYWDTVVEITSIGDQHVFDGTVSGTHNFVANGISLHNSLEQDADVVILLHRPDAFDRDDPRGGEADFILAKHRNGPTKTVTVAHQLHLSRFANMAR
As to the kind of experiment: DnaB intein splicing inhibitors, dose response, biochemical, cell-free fluorescence (AID 449749). It is filed as functional.

The test system of experiment [4] is Vero. The experiment in a line: Vero cell cytotoxicity, cytotoxicity control for flavivirus capping enzyme inhibitors (AID 588742). It is filed as functional. The note with it: Chlorocebus sabaeus.
Experiment [5] deals with T2, Protein RecA (Mycobacterium tuberculosis, UniProt P9WHJ3).
T2 sequence (P9WHJ3 whole entry): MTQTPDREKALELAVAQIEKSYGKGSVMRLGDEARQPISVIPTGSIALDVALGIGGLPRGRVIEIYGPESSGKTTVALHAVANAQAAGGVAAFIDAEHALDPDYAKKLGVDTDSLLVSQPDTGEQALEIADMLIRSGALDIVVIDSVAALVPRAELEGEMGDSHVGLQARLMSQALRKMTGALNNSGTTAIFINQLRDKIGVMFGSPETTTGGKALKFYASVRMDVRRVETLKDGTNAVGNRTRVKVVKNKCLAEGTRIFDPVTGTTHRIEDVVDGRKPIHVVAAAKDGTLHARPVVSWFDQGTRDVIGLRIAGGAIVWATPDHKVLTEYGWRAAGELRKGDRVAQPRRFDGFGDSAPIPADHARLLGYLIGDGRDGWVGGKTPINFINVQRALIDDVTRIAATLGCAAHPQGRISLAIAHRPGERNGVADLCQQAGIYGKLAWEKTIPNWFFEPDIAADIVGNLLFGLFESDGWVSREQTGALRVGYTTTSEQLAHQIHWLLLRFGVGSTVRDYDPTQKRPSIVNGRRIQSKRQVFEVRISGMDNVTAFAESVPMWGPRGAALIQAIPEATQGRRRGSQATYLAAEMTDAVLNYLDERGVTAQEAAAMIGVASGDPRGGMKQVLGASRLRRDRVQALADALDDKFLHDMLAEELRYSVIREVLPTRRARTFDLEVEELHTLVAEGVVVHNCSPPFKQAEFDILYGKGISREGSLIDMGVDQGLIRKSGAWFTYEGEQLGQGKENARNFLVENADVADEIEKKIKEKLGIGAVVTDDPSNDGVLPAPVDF
The experiment in a line: Fluorescence Cell-Free Homogeneous Dose Retest to Identify Inhibitors of RecA-Intein Splicing Activity. [Related pubchem assays (depositor defined):AID2097, AID2223, AID489010, AID492950]. It is filed as functional.

For experiment [6], the target named is Genome polyprotein (dengue virus type 2, UniProt P29990). The experiment in a line: Dengue-2 NS5 methyltransferase inhibitors, primary screen, biochemical, confirmation dose response (AID 588689). It is filed as functional.
Chain of Genome polyprotein (P29990 2492-3391 limits assumed): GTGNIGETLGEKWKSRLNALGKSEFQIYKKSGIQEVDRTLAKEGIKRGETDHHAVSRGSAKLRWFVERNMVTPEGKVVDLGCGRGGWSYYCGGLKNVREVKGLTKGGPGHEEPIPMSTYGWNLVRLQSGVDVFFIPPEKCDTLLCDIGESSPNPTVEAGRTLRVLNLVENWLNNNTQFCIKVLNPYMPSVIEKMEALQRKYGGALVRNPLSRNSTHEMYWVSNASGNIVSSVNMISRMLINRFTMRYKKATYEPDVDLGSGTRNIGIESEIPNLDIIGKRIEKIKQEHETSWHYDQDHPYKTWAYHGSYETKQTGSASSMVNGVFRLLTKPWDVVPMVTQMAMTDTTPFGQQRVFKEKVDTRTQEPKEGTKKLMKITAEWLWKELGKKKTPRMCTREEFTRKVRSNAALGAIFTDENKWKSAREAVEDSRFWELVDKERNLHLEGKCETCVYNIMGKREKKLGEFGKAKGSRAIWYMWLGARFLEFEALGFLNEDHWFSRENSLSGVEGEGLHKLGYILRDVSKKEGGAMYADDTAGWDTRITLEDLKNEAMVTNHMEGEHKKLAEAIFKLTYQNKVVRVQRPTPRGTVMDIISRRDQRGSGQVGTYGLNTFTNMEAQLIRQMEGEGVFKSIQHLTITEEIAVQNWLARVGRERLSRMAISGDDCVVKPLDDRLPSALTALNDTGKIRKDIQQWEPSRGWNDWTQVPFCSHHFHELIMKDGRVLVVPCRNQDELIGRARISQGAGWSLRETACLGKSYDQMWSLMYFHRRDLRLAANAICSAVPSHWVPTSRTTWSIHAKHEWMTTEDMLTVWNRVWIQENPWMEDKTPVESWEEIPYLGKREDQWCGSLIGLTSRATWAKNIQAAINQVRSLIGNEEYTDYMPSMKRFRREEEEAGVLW
Experiment [7] has as its target T3, Long-chain-fatty-acid--AMP ligase FadD28 (Mycobacterium tuberculosis, UniProt P9WQ59).
T3 sequence (P9WQ59 whole entry): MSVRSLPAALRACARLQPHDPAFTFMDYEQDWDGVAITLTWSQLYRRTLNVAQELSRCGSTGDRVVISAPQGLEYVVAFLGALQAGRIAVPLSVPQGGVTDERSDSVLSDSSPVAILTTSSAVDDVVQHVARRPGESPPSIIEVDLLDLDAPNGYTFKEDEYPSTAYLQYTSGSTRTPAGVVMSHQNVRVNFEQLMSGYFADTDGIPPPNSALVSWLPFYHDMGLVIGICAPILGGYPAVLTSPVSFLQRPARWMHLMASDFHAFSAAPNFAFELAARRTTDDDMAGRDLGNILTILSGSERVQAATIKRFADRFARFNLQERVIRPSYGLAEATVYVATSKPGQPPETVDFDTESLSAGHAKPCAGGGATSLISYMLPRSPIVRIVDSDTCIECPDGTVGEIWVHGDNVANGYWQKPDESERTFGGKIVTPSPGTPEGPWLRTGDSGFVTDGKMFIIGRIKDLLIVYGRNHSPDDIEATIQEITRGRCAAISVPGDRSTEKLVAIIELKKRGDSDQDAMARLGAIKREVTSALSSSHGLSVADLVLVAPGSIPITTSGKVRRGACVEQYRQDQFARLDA
As to the kind of experiment: Fluorescence polarization aasay to screen for inhibitors that compete for the binding of FadD28 to a bisubstrate Measured in Biochemical System Using Plate Reader - 2147-01_Inhibitor_Dose_CherryPick_Activity. The class given is functional, Mycobacterium tuberculosis H37Rv. A general note: In fluorescence polarisation assays a small probe gives low polarisation when free and higher when bound to something large.

Experiment [8] concerns the target Paired box protein Pax-8 (Homo sapiens, UniProt Q06710). As to the kind of experiment: inhibitors of PAX8-driven TPO luciferase reporter, dose response, RMG-I cells, cherry-pick (AID 687027).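 Also: luciferase reporter driven by Pax8 target thyroperoxidase promoter measured by SteadyGlo luminescence.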 It is filed as functional, cell-based.
The nature of experiment [9]: PAX2 cell-based inhibition, dose response, selectivity assay for PAX8 inhibitor project, plate reader, dry powder samples (AID 743048).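 Also: HEK293 cells carrying a WT1 promoter luciferase reporter driven by expressed Pax2; potency is for inhibition of Pax2 driven reporter signal.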 The class given is functional.
Experiment [10] is described as follows: cytotoxicity in COV362 ovarian cancer cells, dose response, cytotoxicity control for PAX8 inhibitor project, cell-based, plate reader, dry powder, SA12 (AID 743144). The class given is functional.
A short description of experiment [11]: IOSE-T80 ovarian epithelial cell cytotoxicity, dose response, cytotoxicity control for PAX8 inhibitor project, plate reader, dry powder samples (AID 743045). It is filed as functional, cell-based.
Experiment [12] is described as follows: A2780 ovarian cancer cell cytotoxicity, dose response, cytotoxicity control, plate reader, dry powder samples (AID 743046). The class given is functional, cell-based.
Experiment [13] in a line: NIH:OVCAR-3 ovarian cancer cell cytotoxicity, dose response, PAX8 inhibitor project, plate reader, dry powder samples (AID 743044). It is filed as functional, cell-based.
Experiment [14] is described as follows: PAX5 activity inhibitors, dose response, selectivity assay for PAX8 inhibitor project, cell-based, plate reader, dry powder samples (AID 743047).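 Also: HEK293 cells carrying a Pax5 driven CD19 promoter luciferase reporter; potency of inhibitors that lower reporter luminescence.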 The class given is functional.
Experiment [15] is described as follows: IGROV1 ovarian cancer cell cytotoxicity, dose response, PAX8 inhibitor project, plate reader, dry powder samples (AID 743043). It is filed as functional, cell-based. The settings on record: IGROV-1.
A short description of experiment [16]: cytotoxicity in OVCAR4 cells, dose response, cytotoxicity control for PAX8 inhibitor project, cell-based, plate reader, dry powder, SA11 (AID 743150). It is filed as functional. The note with it: OVCAR-4.
A short description of experiment [17]: cytotoxicity in COV434 cells, dose response, cytotoxicity control for PAX8 inhibitor project, cell-based, plate reader, dry powder, SA7 (AID 743145). It is filed as functional.
Experiment [18] can be described thus: cytotoxicity in OV-90 ovarian cancer cells, dose response, PAX8 inhibitor project, cell-based, plate reader, dry powder, SA8 (AID 743149). The class given is functional.
Experiment [19] is described as follows: cytotoxicity dependent on PAX8, dose response, cell-based, plate reader, dry powder (AID 743049). The class given is functional.
Experiment [20] can be described thus: THP-1 cell cytotoxicity, dose response, cytotoxicity control for Vif-APOBEC3G degradation inhibitor project, THP-1 cells (AID 1117359). It is filed as functional. The note with it: Human immunodeficiency virus 1, THP-1.
Experiment [21] in a line: Late stage results for the probe development effort to identify inhibitors of Plasmodium falciparum gametocytes: Luminescence-based cell-based high throughput dose response assay to identify inhibitors of viability of late stage Plasmodium falciparum gametocytes. The class given is functional.

Chain of Paired box protein Pax-8 (Q06710 whole entry): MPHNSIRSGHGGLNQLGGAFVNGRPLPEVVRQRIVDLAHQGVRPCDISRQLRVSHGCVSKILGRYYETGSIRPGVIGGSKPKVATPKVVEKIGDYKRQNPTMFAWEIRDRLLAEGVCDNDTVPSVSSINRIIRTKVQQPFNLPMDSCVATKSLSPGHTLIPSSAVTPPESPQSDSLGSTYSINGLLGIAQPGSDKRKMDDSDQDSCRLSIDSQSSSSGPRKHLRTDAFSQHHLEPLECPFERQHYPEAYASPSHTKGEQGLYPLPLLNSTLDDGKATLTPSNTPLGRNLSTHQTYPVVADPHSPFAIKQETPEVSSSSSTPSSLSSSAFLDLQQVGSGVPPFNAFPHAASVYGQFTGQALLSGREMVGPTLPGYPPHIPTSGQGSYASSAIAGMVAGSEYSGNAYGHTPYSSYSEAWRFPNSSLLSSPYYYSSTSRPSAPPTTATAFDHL

Regarding `O=C(O)CCCN1C(=O)/C(=C\C(Cl)=C\c2ccccc2)SC1=S`, the results for the EC50 in experiment [1], in experiment [2] and in experiment [5] were > 120 µM (not active), > 120 µM (not active) and 16.3 µM (active), respectively. Moreover, the AC50 was 9.77 µM (active) in experiment [3]; 29.7 µM (active) in experiment [7]; 2.03 µM (active) in experiment [8]; 17.8 µM (active) in [9]; 16 µM (active) in experiment [10]; 22.9 µM (active) in experiment [11]. In addition, the AC50 was 66.9 µM (active) in experiment [12]; 10.2 µM (active) in experiment [13]; 13.2 µM (active) in experiment [14]; 9.43 µM (active) in experiment [15]; 31.8 µM (active) in [16]; 27.9 µM (active) in [17]. The AC50 in experiment [18] is 18.4 µM (active); in experiment [19] it was 16 µM (active). Also, the CC50 in experiment [4] was 3.6 µM (active); in [20] it was 6.87 µM (active). Moreover, the IC50 in experiment [6] is 36.2 µM (active).

For `O=C(Nc1nccs1)c1cn(-c2ccccc2)nc1-c1ccc(F)cc1`, the IC50 in experiment [21] was > 74.4 µM (inactive).

As usually defined, the EC50 is the concentration needed to bring the measured effect to its halfway point. Broadly, the AC50 is the concentration at which the activity in the assay is half-maximal. As a reminder, the CC50 is the concentration at which the toxic effect on the cells reaches its halfway point. Usually IC50 stands for the point on the concentration scale where inhibition reaches its midpoint.
